Where a name gives a salt, the structure may show the parent alone.
Columns and labels:
[1] = biological target: T1, human adenosine A2a receptor (Homo sapiens, UniProt P29274); assay: Adenosine A2a Receptor Functional Assay (A2AGAL2); type: cell-based; conditions: CHO-K1 cells, cAMP inducible beta-galactosidase reporter, 15 nM NECA agonist challenge
T1 construct: expressed in transfected cells; host or cells: CHO-K1
In short: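 Antagonist mode in CHO-K1 cells expressing human A2a with a cAMP-inducible β-galactosidase reporter (10K cells/well, cultured 2 days). 11-point compound curves preincubated ~15 min at room temperature in Ham's F-12/0.1% BSA, then 15 nM NECA challenge, 5.5–6 h at 37 °C. Colorimetric β-gal read at 405 nm; IC/EC50 fitted.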

[2] = biological target: T2, human A2a adenosine receptor (Homo sapiens, UniProt P29274); assay: Ligand Binding Assay for Adenosine A2a Receptor (A2A-B); conditions: HEK293 plasma membrane, radioligand [3H]CGS21680
T2 construct: purchased PerkinElmer RB-HA2a; host or cells: HEK293
T2 sequence (P29274 whole entry): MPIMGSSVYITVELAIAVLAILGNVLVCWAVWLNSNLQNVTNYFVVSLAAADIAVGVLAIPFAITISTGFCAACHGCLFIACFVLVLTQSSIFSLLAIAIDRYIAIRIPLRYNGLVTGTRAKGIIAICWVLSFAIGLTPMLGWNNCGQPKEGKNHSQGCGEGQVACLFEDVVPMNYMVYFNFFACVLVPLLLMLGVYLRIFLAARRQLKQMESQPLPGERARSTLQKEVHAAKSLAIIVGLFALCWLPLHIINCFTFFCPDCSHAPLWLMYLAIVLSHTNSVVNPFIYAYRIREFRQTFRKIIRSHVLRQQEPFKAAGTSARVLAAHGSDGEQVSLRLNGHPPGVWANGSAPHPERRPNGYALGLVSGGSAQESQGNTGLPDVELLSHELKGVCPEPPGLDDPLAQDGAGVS
In short: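 [3H]CGS21680 binding to HEK293 membranes expressing human A2a receptor in 50 mM Tris-HCl pH 7.4, 10 mM MgCl2, 1 mM EDTA, 2 h at room temperature. Nonspecific binding defined with […] NECA; bound ligand collected on PEI-soaked GF/C filters and counted by scintillation.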

[3] = biological target: T3, human adenosine A1 receptor (Homo sapiens, UniProt P30542); assay: Adenosine A1 Receptor Functional Assay (A1GAL2); type: cell-based; conditions: CHO-K1 cells, cAMP inducible beta-galactosidase reporter, 4 nM r-PIA/1 uM Forskolin challenge
T3 construct: expressed in transfected cells; host or cells: CHO-K1
T3 sequence (P30542 1-326): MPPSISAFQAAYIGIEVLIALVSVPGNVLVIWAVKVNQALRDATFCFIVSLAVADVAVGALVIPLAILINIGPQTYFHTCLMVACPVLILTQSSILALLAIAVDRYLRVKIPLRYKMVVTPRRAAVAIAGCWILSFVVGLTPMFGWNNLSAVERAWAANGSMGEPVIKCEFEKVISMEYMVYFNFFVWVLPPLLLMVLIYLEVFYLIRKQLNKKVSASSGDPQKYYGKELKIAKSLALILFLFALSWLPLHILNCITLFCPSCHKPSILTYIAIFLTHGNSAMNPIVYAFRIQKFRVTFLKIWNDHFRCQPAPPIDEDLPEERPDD
In short: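 CHO-K1 cells expressing the receptor with a cAMP-inducible β-galactosidase reporter were preincubated with compound (11-point curves) about 15 min at room temperature, then challenged with r-PIA (4 nM)/forskolin (1 µM) for 5.5–6 h at 37 °C. Lysates were read colorimetrically at 405 nm, and IC/EC50 was obtained by curve fitting.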

T1 sequence (P29274 whole entry): as the sequence (P29274 whole entry) above

Compound | Ki [1] [nM] | Ki [2] [nM] | Ki [3] [nM]
COc1cccc(-c2nc(N)c3cc(CN4CCSCC4)sc3n2)c1 [Example 85, 2-(3-Methoxy-phenyl)-6-thiomorpholin-4-ylmethyl-thieno[2,3-d]pyrimidin-4-ylamine] | 169 | 659 | 2960
Nc1nc(-c2ccnc(Cl)c2)nc2sc(CN3CCOCC3)cc12 [Example 105, 2-(2-Chloro-pyridin-4-yl)-6-morpholin-4-ylmethyl-thieno[2,3-d]pyrimidin-4-ylamine] | 123 | 934 | 876
Nc1nc(-c2ccco2)nc2sc(CN3CCC(=O)CC3)cc12 [Example 45, 1-(4-Amino-2-furan-2-yl-thieno[2,3-d]pyrimidin-6-ylmethyl)-piperidin-4-one] | 229 | 190 | 2720

Stronger by Ki [1], values ahead:

Ki [1] [nM] | Ki [2] [nM] | Ki [3] [nM] | Compound
18.9 | 12 | 741 | Nc1nc(-c2ccco2)nc2sc(CN3CCC(F)CC3)cc12 [Example 92, 6-(4-Fluoro-piperidin-1-ylmethyl)-2-furan-2-yl-thieno[2,3-d]pyrimidin-4-ylamine Hydrochloride]
53.8 | 444 | 2950 | N#Cc1cccc(-c2nc(N)c3cc(CN4CCC(F)CC4)sc3n2)c1 [Example 82, 3-[4-Amino-6-(4-fluoro-piperidin-1-ylmethyl)-thieno[2,3-d]pyrimidin-2-yl]-benzonitrile]

Source: patent US20100093702A1, “METHYLENE AMINES OF THIENO[2,3-d]PYRIMIDINE AND THEIR USE AS ADENOSINE A2a RECEPTOR ANTAGONISTS” (priority 2008, published 2010)
